Results on 81 compounds are retold here after publication PMC12040169 (PLOS Biology, 2025).

SMILES strings stand for the structures.

The first series can be described thus: in vitro. The conditions noted are these: human, hela cells, % viability.
One may read the viability as a read-out of living cells in per cent, often relative to untreated cells. With `O=C(NC1CC(=O)N(CC(F)(F)F)C1)c1cnc(-c2ccncc2)s1` (stereo not drawn) [CBK305546], the viability at 28.5 h, 10 µM stood at 78%.
With `CCOC(=O)CN(Cc1ccccc1)Cc1cccc(OC)c1` [CBK126459], the viability at 28.5 h, 10 µM came to 96.4%.
As for `COc1ccccc1C(=O)Nc1sc2c(c1C#N)CC(C)(C)NC2(C)C` [CBK307233], the viability at 28.5 h, 10 µM was 99.9%.
Still for that read-out and setting: as for `CCOC(=O)N1CCC(NS(=O)(=O)Cc2ccccc2[N+](=O)[O-])CC1` [CBK045467], the figure is 97.3%; as for `N/C(=N\O)c1ccc(OC(F)(F)F)cc1` [CBK019865], 97.2%; as for `CC12CCC(C(=O)O)(C/C1=N\N)C2(C)C` (stereo not drawn) [CBK265268], 113%.
In the case of `COc1cccc(C(=O)NC(=S)Nc2ccc(C(=O)O)c(Cl)c2)c1` [CBK265065], the viability at 28.5 h, 10 µM came to 103%.
On the same count and under the same terms, as for `O=C(O)c1ccccc1C1SCCCS1` [CBK016303], the figure is 91.4%; as for `CC(C)(C)OC(=O)N1CCC2(CC1)NC(=O)c1cc(-c3cccc4ncccc34)ccc1O2` [CBK083674], 109%.
Still for that read-out and setting: as for `O=C(NCc1cccs1)OCc1ccccc1` [CBK008074], the figure is 96.6%; as for `O=C1CC(c2noc(-c3ccncc3)n2)CN1c1ccccc1` (stereo not drawn) [CBK288043], 85.4%; as for `CC(C)(C)c1ccc(C(=O)Nc2nsc(-c3ccc(Cl)cc3)n2)cc1` [CBK113176], 89.6%.
For `COc1ccc(C(=O)N2CCC3(CCCN(C(=O)CC4NC(=O)NC4=O)C3)C2)cc1OC` (stereo not drawn) [CBK137082], the viability at 28.5 h, 10 µM was found to be 93.7%.
Same read-out and setting: for `Cc1nonc1NC(=O)CSc1nc2cc(Cl)ccc2[nH]1` [CBK270095] the value was 84.8%.
Still for that read-out and setting: for `CCc1ccc(-c2csc(NS(=O)(=O)c3cccc(C(=O)O)c3)n2)cc1` [CBK296726] the value was 91%.
With `CN(C)c1cccc(-c2cc(NC3CCCCC3)ncn2)c1` [CBK090900], the viability at 28.5 h, 10 µM was 109%.
The same measure, in the same setting: as for `CCCc1[nH]nc(O)c1Cc1c(F)cccc1[N+](=O)[O-]` [CBK075029], the figure is 89.5%; as for `Cc1cc(N2CCC(c3cc(CCOc4ccc(Cl)cc4)[nH]n3)C2)nc(C)n1` (stereo not drawn) [CBK286119], 98.1%.
For `COc1ccc(C(=O)N2CCN(c3ccc(NC(=O)c4cccnc4)cc3)CC2)cc1` [CBK270200], the viability at 28.5 h, 10 µM was 85.5%.
Turning to `O=C(NC(=S)Nc1ccc(Br)cc1)c1ccccc1` [CBK092022], the viability at 28.5 h, 10 µM was determined as 83.5%.
Still for that read-out and setting: as for `Cc1nc2ccccc2n1CC(=O)N(Cc1cccnc1)C1CC1` [CBK305248], the figure is 109%; as for `COCC(=O)N1CCC2(CC1)CC(=O)c1cc(Cl)cc(Cl)c1O2` [CBK156440], 84.1%.
On the same count and under the same terms, as for `CCCc1cc(C(=O)NCCCN)cc(CCC)c1OCc1ccccc1` [CBK001736C], the figure is 114%; as for `O=S(=O)(c1ccc(F)c(Cl)c1)N1CCCN(Cc2ccccc2)CC1` [CBK045211], 101%.
The same measure, in the same setting: for `Cc1ccc(-c2nc3ncc(C#N)c(N)n3n2)cc1` [CBK288153] the value was 106%; for `O=C(NC(c1ccc(F)cc1)c1cnccn1)C1CCN(S(=O)(=O)c2cccc(Cl)c2)CC1` (stereo not drawn) [CBK060013], 85.1%.
As to `O=C(O)CCN1CCCC2(CCN(C(=O)c3ccoc3)C2)C1` (stereo not drawn) [CBK137139], the viability at 28.5 h, 10 µM came out at 93.4%.
On the same count and under the same terms, for `Cc1cnc(NC(=O)C(C)Oc2ccccc2)s1` (stereo not drawn) [CBK288250] the value was 108%.
For `Cc1ccc(-c2nccnc2OCc2ccccc2)cc1C` [CBK106861], the viability at 28.5 h, 10 µM was 90.8%.
As to `CCN(CCO)c1ccc(Nc2cc(-c3ccsc3)ncn2)cc1` [CBK091000], the viability at 28.5 h, 10 µM is 89.5%.
Take `O=[N+]([O-])c1nn(-c2ccc(Cl)cc2)[n+]([O-])c1NCc1ccccn1` [CBK268270]: the viability at 28.5 h, 10 µM was found to be 96.6%.
On the same count and under the same terms, for `CC1CCc2nc(NC(=O)Cn3cccc(C(=O)NC4CCCCC4)c3=O)sc2C1` (stereo not drawn) [CBK286064] the value was 101%; for `COc1ccc2c(c1)C(C)CC(C)(C)N2C(=O)CSc1nnc(-c2ccco2)n1C` (stereo not drawn) [CBK059169], 102%; for `COc1c(Cl)cc(Cl)cc1CNC1CCCc2c1cnn2C` (stereo not drawn) [CBK304305C], 90.6%.
On the same count and under the same terms, for `Nc1ccc(-n2c(-c3ccccc3)c3c(c2-c2ccc(Cl)cc2)C(=O)c2ccccc2C3=O)cc1` [CBK262695] the value was 87.3%; for `O=C(O)c1ccc(S(=O)(=O)N(CC2CC=CCC2)CC2CCCO2)cc1` (stereo not drawn) [CBK286685], 101%.
Still for that read-out and setting: for `C(=C\c1ccccc1)/Cn1c(COc2ccccc2)nc2ccccc21` [CBK265535] the value was 91.6%.
On to `Cc1cc(S(=O)(=O)Nc2n[nH]cc2C#N)c(C)cc1Cl` [CBK044943], for which the viability at 28.5 h, 10 µM came out at 91.9%.
In the case of `O=C(CSCc1ccc(Cl)cc1Cl)Nc1cccc(O)c1` [CBK131702], the viability at 28.5 h, 10 µM stood at 110%.
On the same count and under the same terms, for `CCN(CC)CCn1c2ccccc2c2nc3cc(C(=O)O)ccc3nc21` [CBK297496] the value was 101%; for `Cc1ccc(CNCc2cc3c(C)nn(-c4ccccc4)c3[nH]c2=O)o1` [CBK282896], 90.8%; for `COc1ccc(CCNc2ccc(C(F)(F)F)cc2[N+](=O)[O-])cc1OC` [CBK074656], 87.4%.
The same measure, in the same setting: for `O=C(Nc1c(F)cccc1F)N(Cc1cc(F)cc(F)c1)CC1CCNCC1` [CBK049795] the value was 90.5%.
The same measure, in the same setting: for `COc1ccc(S(=O)(=O)N2CCN(C(=O)c3ccco3)CC2)c2ccccc12` [CBK269839] the value was 86.8%; for `Cn1nc(NC(=O)c2ccco2)c2c(F)cccc21` [CBK057774], 93.7%; for `Cn1c(-c2nonc2N)nc2ccccc21` [CBK062642], 94.5%.
Take `CCOc1cc(C)c(C(C)C)cc1S(=O)(=O)NCc1ccccn1` [CBK268080]: the viability at 28.5 h, 10 µM was found to be 104%.
Same read-out and setting: as for `COCCNC(=O)N1CCCC(CO)C1` (stereo not drawn) [CBK156040], the figure is 88.3%; as for `COc1ccc(C(NC(=O)[C@H]2CCCN2C(=O)COc2ccccc2)c2ccccc2C)cn1` (stereo partly drawn) [CBK076682], 96.1%.
Still for that read-out and setting: as for `O=C(O)C1CCCCC1C(=O)NCCCN1CCCC1=O` (stereo not drawn) [CBK286914], the figure is 83.1%; as for `CCCn1c(=N)n(CCOc2cccc(C)c2)c2ccccc21` [CBK264746B], 89.2%.
The same measure, in the same setting: as for `N#Cc1c[nH]nc1NS(=O)(=O)c1ccc(F)cc1` [CBK051018], the figure is 106%; as for `Cc1cc(Cl)cc(Br)c1OCCN1CCN(C)CC1` [CBK269668C], 93.9%; as for `COc1ccc(CCNC(=O)c2cccc(-c3ccc(OC4CCNCC4)cc3)n2)cc1OC` [CBK126548T], 91.7%.
Regarding `COCC(=O)N1CCc2sccc2C1c1ccc(NC(=O)c2ccc(F)cc2)cc1` (stereo not drawn) [CBK286435], the viability at 28.5 h, 10 µM came to 93.8%.
The same measure, in the same setting: for `CN(C)CCNC(=O)c1ccc2[nH]ccc2c1` [CBK149062] the value was 112%; for `O=C(Cc1ccccc1)N1CCN(CCCc2ccccc2)CC1` [CBK263451G], 96.8%.
For `CC(NC(=O)CSc1ncc(-c2ccccc2)nn1)c1ccccc1` (stereo not drawn) [CBK267514], the viability at 28.5 h, 10 µM turned out to be 85.7%.
Regarding `Nc1ncc(-c2cccc3ncccc23)nc1N1CCC[C@@H]1CO` [CBK063441], the viability at 28.5 h, 10 µM is 105%.
The same measure, in the same setting: as for `CN1CCN(C(=O)CSc2nnc(COc3ccccc3)o2)CC1` [CBK268970], the figure is 85.4%; as for `CSc1ccc(-c2nccnc2OCCC(C)C)cc1` [CBK106802], 113%; as for `Cc1nc(CNCc2c(C)nn(C)c2N2CCOCC2)cs1` [CBK305753], 83.7%.
For the compound `CCCc1c(C(=O)NC2CC2)cnn1-c1ccc(Cl)cc1` [CBK006334], the viability at 28.5 h, 10 µM worked out at 112%.
For `O=C(CSc1nc2cccnc2[nH]1)Nc1cc(Cl)ccc1Cl` [CBK264644], the viability at 28.5 h, 10 µM was found to be 101%.
On to `Cc1nc(CN2CCC3(CC2)CN(C(=O)C(C)C)c2ccccc23)cs1` [CBK131476], for which the viability at 28.5 h, 10 µM turned out to be 108%.
On to `CC(C)CNC(=O)c1cc([C@H]2CC[C@H](CNC(=O)c3cnn(C)c3)CC2)nc2ccccc12` [CBK285867], for which the viability at 28.5 h, 10 µM amounted to 114%.
Same read-out and setting: as for `O=C(c1nc2ccccc2[nH]1)N1CCN(c2ccccc2)CC1` [CBK200167], the figure is 103%; as for `O=C(c1cc(F)cc(F)c1)N1CCC(O)(c2cccnc2F)CC1` [CBK284361], 92.7%.
On the same count and under the same terms, for `COc1cc(C)ccc1S(=O)(=O)Nc1cc(OC2CCNCC2)c2occc2c1` [CBK074192C] the value was 98.6%; for `CCCNC(=O)C1(Cc2ccccc2-c2ccccc2)CCN(C(=O)c2ccccc2)CC1` [CBK286275], 89.3%; for `O=C(CN1CCN(C/C=C/c2ccccc2)CC1)Nc1ccc(C2CCCCC2)cc1` [CBK074497], 112%.
The same measure, in the same setting: for `Clc1ccc(Nc2cncc(-c3cccnc3)n2)cc1` [CBK065234] the value was 105%; for `COC(=O)[C@@H](C)NC(=O)[C@H]1CN(C(=O)c2cccnc2)CCN1C(=O)NC(C)C` [CBK289630], 104%; for `COc1cc(/C=C2\N=C(c3cc(Cl)ccc3OC)OC2=O)ccc1OC(=O)c1ccccc1` [CBK265069], 104%.
As to `O=C(c1cccc(F)c1)N1CCC(c2n[nH]c3ncccc23)CC1` [CBK284907], the viability at 28.5 h, 10 µM turned out to be 109%.
Still for that read-out and setting: for `N#CCCCN1CCC(Oc2nccnc2OCc2cccc3ccccc23)CC1` [CBK161571] the value was 99.3%; for `C=CCn1c2cc(C)sc2c2cnn(CC(=O)N(C)C)c(=O)c21` [CBK284164], 83.9%.
Still for that read-out and setting: as for `COc1ncccc1C(=O)NCC(CC(=O)O)c1ccc(Cl)cc1` (stereo not drawn) [CBK287264], the figure is 92.1%.
Same read-out and setting: for `CCc1noc(C)c1C(=O)N1CCC(NC)C1` (stereo not drawn) [CBK304299C] the value was 100%; for `COc1cccc(CNc2nccnc2-c2ccoc2)c1OC` [CBK036782], 105%.

The same series, now with this note: human, hela cells, % viability, bulk resorufin, single well.
On to `Cc1cccc(CNC(Cc2ccsc2)c2nccs2)n1` (stereo not drawn) [CBK282697], for which the viability at 28.5 h, 10 µM turned out to be 106%.
